The subject of one series is ERK1/ERK2. The series is described as follows: Western blot of hippocampal homogenates: ERK1/2 and p-ERK1/2. The class given is in vivo, mouse. Particulars: for ERK2/ERK1 ratio, mean / p-ERK2/p-ERK1 ratio, mean: hippocampal region. As to the method: Euploid and Ts65Dn mice received a daily subcutaneous injection (at 9-10 am) of 7,8-DHF (5.0 mg/kg in vehicle: PBS with 1% DMSO) or vehicle from postnatal day 3 (P3) to postnatal day 15. This timing was chosen because it corresponds to that previously used to test the effects of fluoxetine and other pharmacotherapies in the neonate Ts65Dn mouse (Bianchi et al., 2010b; Giacomini et al., 2015; Stagni et al., 2016). Mice that received 7,8-DHF will be called “treated mice” (treated euploid mice: n=25; treated Ts65Dn mice: n=15). Mice that received the vehicle will be called “untreated mice” (untreated euploid mice: n=35; untreated Ts65Dn mice: n=21). […] The brains were excised and cut along the midline. The left hemisphere of a group of mice was fixed by immersion in PFA 4% and frozen, and the left hemisphere of another group of mice was used for Golgi staining. The right hemispheres of all mice was kept at −80° C. and used for western blotting.
In homogenates of the hippocampal formation of P15 mice, total proteins were obtained as previously described (Trazzi et al., 2011) and the levels of the following proteins were evaluated: BDNF, TrkB full length (TrkB-FL), phosphorylated TrkB (p-TrkB), the truncated form 1 of the TrkB receptor (TrkB-T1), phosphorylated ERK1 (p-ERK1), phosphorylated ERK2 (p-ERK2), ERK1, ERK2, synaptophysin (SYN), GAPDH and α-Tubulin using the antibodies reported in Table 1. Densitometric analysis of digitized images with ChemiDoc XRS+ was performed with Image Lab software (Bio-Rad Laboratories, Hercules, Calif., USA) and intensity for each band was normalized to the intensity of the corresponding GAPDH or α-Tubulin band.
For orientation: A western blot detects proteins with antibodies after separation by electrophoresis.

For series [1] the following is noted: Liu et al., 2010 and 2013; cited from earlier work.
For series [2] the following is noted: dose of 5.0 mg/kg, Liu et al., 2010; cited from earlier work.
Series [3] can be described thus: Mortality before weaning, neonatal treatment. The text has this: Treatment with either 7,8-DHFor vehicle began on postnatal day 3(P3). All mice that survived in the P0 to P3 period entered this study, with no specific selection criteria. Total of 185 mice entered the study (96 males and 89 females). The number of vehicle-treated and 7,8-DHF treated mice was 96 and 89, respectively.
The Ts65Dn strain is characterized by a high mortality rate during gestation (Roper et al., 2006). […] In the current study, treatment with either 7,8-DHF or vehicle began on postnatal day 3 (P3). All mice that survived in the P0 to P3 period entered this study, with no specific selection criteria.

Another series relates to Ts65Dn and euploid mice. The series is described as follows: Morris Water Maze, learning phase. The class given is in vivo, mouse. The procedure:
Euploid and Ts65Dn mice received a daily subcutaneous injection (at 9-10 am) of 7,8-DHF (5.0 mg/kg in vehicle) or vehicle from postnatal day 3 (P3) to postnatal day P45-P50. […] These mice will be called here P45 mice. Mice were behaviorally tested in the 6 days that preceded the day of sacrifice (FIG. 2B).
Mice were trained in the MWM task to locate a hidden escape platform in a circular pool, using a previously used protocol (Stagni et al., 2016), that was altogether based on a published protocol (Vorhees and Williams, 2006). The apparatus consisted of a large circular water tank (1.00 m diameter, 50 cm height) with a transparent round escape platform (10 cm^2). The pool was virtually divided into four equal quadrants identified as northeast, northwest, southeast, and southwest. The tank was filled with tap water at a temperature of 22±1.0° C. Mice are more prone to undergo hypothermia than rats and in the MWM hypothermia may cause a reduction in swimming speed (livonen et al., 2003). […] This is consistent with evidence that a temperature of 22° C. is “high enough” to reduce stress and potential hypothermia and “low enough” to maintain the animals' motivation to escape the pool (Costa et al., 2010). The tank was filled with water up to 0.5 cm above the top of the platform and the water was made opaque with milk. The platform was placed in the tank in a fixed position (in the middle of the south-west quadrant). The pool was placed in a large room with various intra (squares, triangles, circles and stars) and extra-maze visual cues. Each mouse was tested in one session of 4 trial on the first day and in two sessions of 4 trials in the following 4 days with an inter-session interval of 45 min. A video camera was placed above the center of the pool and connected to a videotracking system (Ethovision 3.1; Noldus Information Technology B.V., Wageningen, Netherlands). Mice were released facing the wall of the pool from one of the following starting points: North, East, South, or West and allowed to search for up to 60 s for the platform. […] During the inter-trail time (10 s) mice were placed in an empty cage. For the learning phase, we evaluated the latency to find the hidden platform, time in periphery, percentage of time in periphery, path length, proximity to the platform, and swimming speed. Retention was assessed with one trial (probe trial), on the sixth day, 24 h after the last acquisition trial, using the same starting point for all mice. Mice were allowed to search for up to 60 s for the platform. For the probe trial, the latency of the first entrance in the former platform zone, the frequency of entrances in the former quadrant, the proximity to the former platform position (Gallagher's test), the percentage of time spent at the periphery (thigmotaxis), the swimming speed and the percentage of time spent in each quadrant were employed as measures of retention of acquired spatial preference. All experimental sessions were carried out between 9.00 am and […]. The following number of mice were tested. Untreated euploid mice: n=19; untreated Ts65Dn mice: n=14; 7,8-DHF-treated euploid mice: n=17; 7,8-DHF-treated Ts65Dn mice: n=16. Three untreated euploid mice (yielding n=16), one 7,8-DHF-treated euploid mouse (yielding n=16) and one 7,8-DHF-treated Ts65Dn mouse (yielding n=15) were excluded from MWM analysis due to thigmotaxis for a whole recording session.

The values that follow come from patent US10945989B2, “Perinatal treatment with a flavonoid agonist of the TrkB receptor for BDNF rescues neurogenesis and behavior in the Ts65Dn mouse model of DS” (ALMA MATER STUDIORUM—Universita' di Bologna, priority 2017, dated 2021).

For the molecule `O=c1cc(-c2ccccc2)oc2c(O)c(O)ccc12` [7,8-DHF, 7,8-dihydroxyflavone], the p-ERK1 levels result in the series with ERK1/ERK2 (P15 Ts65Dn mice, vs untreated Ts65Dn and untreated euploid mice) is reported as “increase in p-ERK1 levels”. In the series with ERK1/ERK2 (P15 Ts65Dn mice, vs untreated Ts65Dn mice), the ERK1 levels result is listed as “increase in ERK1 levels”. Besides, the ERK2 levels entry is reported as “increase in ERK2 levels” in the series on ERK1/ERK2 (P15 Ts65Dn mice, vs untreated counterparts and untreated euploid mice); “increase in ERK2 levels” with ERK1/ERK2 (P15 euploid mice, vs untreated counterparts). In addition, in the series on ERK1/ERK2 (P15 Ts65Dn mice, vs untreated euploid mice), the p-ERK2 levels entry is reported as “increase in p-ERK2 levels”. For the same molecule, in the series on ERK1/ERK2 (Ts65Dn mice), the “stoichiometry of ERK1/2 and p-ERK1/2” value is on record as “did not affect their stoichiometry”. Further, the “ERK2/ERK1 ratio, mean” value in the series with ERK1/ERK2 (Ts65Dn mice, 7,8-DHF P3-P15) was found to be 3.93; in the series on ERK1/ERK2 (euploid mice, 7,8-DHF P3-P15) it was 4.18. Moreover, the “p-ERK2/p-ERK1 ratio, mean” value with ERK1/ERK2 (Ts65Dn mice, 7,8-DHF P3-P15) is 2.01; with ERK1/ERK2 (euploid mice, 7,8-DHF P3-P15), 2.32. Moreover, the blood-brain barrier penetration result in series [1] was “penetrates the blood-brain barrier”. Besides, in series [2], the toxic effects entry is reported as “no toxic effects”. For the same molecule, in series [3] (mouse, in vivo), the “adverse effects on the health of mice” value is recorded as “no adverse effects on the health of mice”. Also, the “mice that died before weaning” value in series [3] (treatment from P3, deaths in the P6-P22 period, vehicle 7.3%) was 5.6%. Further, the “time spent at the periphery (thigmotaxis)” value with Ts65Dn and euploid mice (Ts65Dn mice) is reported as “spent a similar time as euploid mice”; in the series with Ts65Dn and euploid mice (euploid mice), “reduction in thigmotaxis”. Further, the “escape latency (learning phase)” value in the series with Ts65Dn and euploid mice (Ts65Dn mice, 5.0 mg/kg P3-P45-50, save for day 3) is “not statistically different from that of untreated euploid mice”; in the series with Ts65Dn and euploid mice (euploid mice, vs untreated, significant on day 2 only) it was “latency was reduced”. In the series on Ts65Dn and euploid mice (Ts65Dn mice, day 5), the path length result is “shorter in comparison with their untreated counterparts”. Moreover, in the series with Ts65Dn and euploid mice (Ts65Dn mice, day 5), the “proximity (distance from the platform)” value is reported as “significantly reduced in comparison with their untreated counterparts”. Also, the “percentage of time spent at the periphery” value in the series with Ts65Dn and euploid mice (Ts65Dn mice, significant vs untreated counterparts on day 5) is “underwent a reduction”.
